Results reported in US8017611B2, “Pyridine and pyrazine derivatives -083” (AstraZeneca AB, priority 2007, dated 2011).
Marks after values point to notes of the source that are not given here.

Target: T1, recombinant Axl tyrosine kinase (Homo sapiens, UniProt P30530)
T1 construct: encompassing amino acids 473 to 894 of Axl; GST (N); made in house; host or cells: SF126 insect cells
T1 sequence (P30530 473-894): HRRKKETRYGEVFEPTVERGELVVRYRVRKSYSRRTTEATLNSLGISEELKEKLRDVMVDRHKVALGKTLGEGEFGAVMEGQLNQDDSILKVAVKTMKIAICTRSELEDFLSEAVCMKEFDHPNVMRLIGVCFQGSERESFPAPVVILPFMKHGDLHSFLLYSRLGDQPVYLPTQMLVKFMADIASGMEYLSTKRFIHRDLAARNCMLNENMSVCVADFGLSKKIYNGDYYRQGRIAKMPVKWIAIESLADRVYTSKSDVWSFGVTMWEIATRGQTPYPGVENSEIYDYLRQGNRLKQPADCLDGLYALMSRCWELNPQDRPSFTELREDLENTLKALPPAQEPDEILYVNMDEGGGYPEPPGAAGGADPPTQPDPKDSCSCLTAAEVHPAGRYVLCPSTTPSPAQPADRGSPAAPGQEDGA
Experiment: In vitro Axl kinase assay (AlphaScreen), Test (a)
Format: biochemical
Settings: 1 μM; mean calculated from a larger number of replicates than the first value; read-out: % Axl tyrosine kinase inhibition at 1 μM concentration (second value, †)

Compound | inhibition at 1 µM
CC(C)(C)OC(=O)N1CCC(n2cc(-c3cnc(N)c(-c4nc5ccccc5s4)c3)cn2)CC1 [Example 13, tert-butyl 4-[4-[6-Amino-5-(1,3-benzothiazol-2-yl)-3-pyridyl]pyrazol-1-yl]piperidine-1-carboxylate] | 99%

Same assay, conditions: test compound at 1 μM; first value quoted

Compound | % Axl tyrosine kinase inhibition at 1 μM concentration
C[C@H](O)C(=O)N1CCC(n2cc(-c3cnc(N)c(-c4nc5ncccc5o4)c3)cn2)CC1 [Example 57.3] | 98.7%
CN1CCC(n2cc(-c3cnc(N)c(-c4nc5cccc(F)c5o4)c3)cn2)CC1 [Example 41.10] | 99.7%
Nc1ncc(-c2ccc(OC3CCNCC3)cc2)cc1-c1nc2ncccc2o1 [Example 43B.33] | 98.1%
Nc1ncc(-c2ccc(OCC3CCCNC3)cc2)cc1-c1nc2ncccc2o1 (centres unmarked) [Example 43B.41] | 99.0%
N#CCc1ccc(-c2cnc(N)c(-c3nc4cnccc4o3)c2)cc1 [Example 8A.16] | 99.4%
CN(C(=O)c1ccc(-c2cnc(N)c(-c3nc4cccnc4o3)c2)cc1)C1CCNCC1 [Example 45A.96] | 99.1%
CN1CCN(c2ccc(-c3cnc(N)c(-c4nc5ccccc5o4)c3)cn2)CC1 [Example 2.54] | 99.8%
Nc1ncc(-c2cccc(CN3CCCC3)c2)cc1-c1nc2cnccc2o1 [Example 8A.1] | 95.6%
Nc1ncc(-c2ccc(C(=O)N3CCCC4(CCNCC4)C3)cc2)cc1-c1nc2cccnc2o1 [Example 45A.91] | 96.3%
CN1CCCCC1C1CCCN1C(=O)c1ccc(-c2cnc(N)c(-c3nc4cccnc4o3)c2)cc1 (centres unmarked) [Example 45A.15] | 99.7%
CN1CCN(C(=O)c2cccc(-c3cnc(N)c(-c4nc5ncccc5o4)c3)c2)CC1 [Example 10A.8] | 57.4%
Nc1ncc(-c2cnn(CCN3CCCC3)c2)cc1-c1nc2ccccc2o1 [Example 27.3] | 96.4%
CNCCN(C)C(=O)c1ccc(-c2cnc(N)c(-c3nc4cccnc4o3)c2)cc1 [Example 45A.85] | 99.8%
N#CCc1ccc(-c2cnc(N)c(-c3nc4ccccc4o3)c2)cc1 [Example 2.51] | 93.1%
COc1nn(C2CCN(C)CC2)cc1-c1cnc(N)c(-c2nc3ccccc3o2)c1 [Example 41.14] | 100.0%
Nc1ncc(-c2ccc(C(=O)N3CCN(Cc4ccccn4)CC3)cc2)cc1-c1nc2cccnc2o1 [Example 45A.60] | 98.1%
Nc1ncc(-c2ccc(N3CCNCC3)cc2)cc1-c1nc2ccccc2o1 [Example 2.14] | 99.9%
Nc1ncc(-c2ccc(CO)s2)cc1-c1nc2cccnc2o1 [Example 9A.19] | 95.6%
Nc1ncc(-c2cccc(C(=O)NCCN3CCCC3)c2)cc1-c1nc2cnccc2o1 [Example 8A.22] | 95.3%
Nc1ncc(-c2cccc(N3CCCCC3)c2)cc1-c1nc2ccccc2o1 [Example 2.46] | 46.4%
CC(=O)NCCC(=O)N1CCC(n2cc(-c3cnc(N)c(-c4nc5ncccc5o4)c3)cn2)CC1 [Example 59.4] | 98.9%
CN1CCCN(C(=O)c2ccc(-c3cnc(N)c(-c4nc5cccnc5o4)c3)cc2)CC1 [Example 45A.65] | 98.3%
Nc1ncc(-c2ccc(C(=O)NCCCN3CC[C@H](F)C3)cc2)cc1-c1nc2cccnc2o1 [Example 45A.40] | 98.3%

Compound | % Axl tyrosine kinase inhibition at 1 μM concentration
CN1CCC(Cn2cc(-c3cnc(N)c(-c4nc5ccccc5o4)c3)cn2)C1 (centres unmarked) [Example 41.15] | 98.4%
CN(C)S(=O)(=O)c1cccc(-c2cnc(N)c(-c3nc4ccccc4o3)n2)c1 [Example 20.1] | 91.8%
CCN(CC)C1CCN(C(=O)c2ccc(-c3cnc(N)c(-c4nc5cccnc5o4)c3)cc2)C1 (centres unmarked) [Example 45A.33] | 97.7%
CC(O)C(=O)N1CCC(n2cc(-c3cnc(N)c(-c4nc5ccccc5o4)c3)cn2)CC1 (centres unmarked) [Example 34.3] | 99.7%
Nc1ncc(-c2ccc(OCCCN3CCNCC3)cc2)cc1-c1nc2ncccc2o1 [Example 43B.38] | 8.1^†††† %
NC(=O)CN1CCC(n2cc(-c3cnc(N)c(-c4nc5ccccc5o4)c3)cn2)CC1 [Example 53.6] | 100.0%
Nc1ncc(-c2ccc(C(=O)N3CCOCC3)cc2)cc1-c1nc2ncccc2o1 [Example 10A.14] | 92.7%
CCOc1nn(C2CCN(C)CC2)cc1-c1cnc(N)c(-c2nc3ccccc3o2)c1 [Example 41.13] | 100.0%
NCCOc1ccc(-c2cnc(N)c(-c3nc4ncccc4o3)c2)cc1 [Example 43B.25] | 97.5%
COc1cc(-c2cnc(N)c(-c3nc4ncccc4o3)c2)ccc1OCCOCCN1CCNCC1 [Example 43C.35] | 99.2%
CN1CCC(n2cc(-c3cnc(N)c(-c4nc5ccccc5o4)c3)c(N(C)C)n2)CC1 [Example 41.31] | 99.9%
Cc1nn(C2CCNCC2)c(C)c1-c1cnc(N)c(-c2nc3ccccc3o2)c1 [Example 29.8] | 88.7%
NCc1cccc(-c2cnc(N)c(-c3nc4cnccc4o3)c2)c1 [Example 8A.27] | 98.6%
CN1CCC(NC(=O)c2ccc(-c3cnc(N)c(-c4nc5cccnc5o4)c3)cc2)C2CCCCC21 (centres unmarked) [Example 45A.44] | 99.3%
Nc1ncc(-c2cccc(N3CCOCC3)c2)cc1-c1nc2ccncc2o1 [Example 11A.12] | 93.7%
Cc1nn(C2CCN(C)CC2)cc1-c1cnc(N)c(-c2nc3ncccc3o2)c1 [Example 41.22] | 100.0%
COCC(=O)N1CCC(n2cc(-c3cnc(N)c(-c4nc5cccnc5o4)c3)cn2)CC1 [Example 57.5] | 99.8%
CC(C)(C)OC(=O)N1CCC(C(=O)Nc2cccc(-c3cnc(N)c(-c4nc5ncccc5o4)c3)c2)CC1 [Example 10A.3] | 87.2%
COCc1nn(C2CCN(C)CC2)cc1-c1cnc(N)c(-c2nc3c(C#N)cccc3o2)c1 [Example 41.39] | 100.0%
Nc1ncc(-c2cccc(CO)c2)cc1-c1nc2ccccc2o1 [Example 2.35] | 93.3%
Nc1ncc(-c2ccc(C(=O)NC3CCNCC3)cc2)cc1-c1nc2cccnc2o1 [Example 45A.103] | 97.3%
Nc1ncc(-c2ccc(OCCOCCN3CCNCC3)cc2)cc1-c1nc2ncccc2o1 [Example 43B.43] | 92.3%

Same assay, conditions: test compound at 1 μM; first value quoted; read-out: % Axl tyrosine kinase inhibition at 1 μM concentration

Compound | inhibition at 1 µM
CNCc1nn(C2CCN(C(C)=O)CC2)cc1-c1cnc(N)c(-c2nc3ccccc3o2)c1 [Example 63, 1-[4-[4-[6-amino-5-(1,3-benzoxazol-2-yl)-3-pyridyl]-3-(methylaminomethyl)pyrazol-1-yl]-1-piperidyl]ethanone] | 98.4%
CN(C)CC(=O)N1CCC(n2cc(-c3cnc(N)c(-c4nc5ncccc5o4)c3)cn2)CC1 [Example 58, 1-[4-[4-(6-amino-5-oxazolo[4,5-b]pyridin-2-yl-3-pyridyl)pyrazol-1-yl]-1-piperidyl]-2-dimethylamino-ethanone] | 99.5%
Nc1ncc(-c2cnn(C3CCNCC3)c2)nc1-c1nc2ccccc2o1 [Example 17, 3-(1,3-Benzoxazol-2-yl)-5-[1-(4-piperidyl)pyrazol-4-yl]pyrazin-2-amine] | 99.6%
CC(C)(C)OC(=O)N1CCC(n2cc(-c3cnc(N)c(-c4nc5ccccc5s4)c3)cn2)CC1 [Example 13, tert-butyl 4-[4-[6-Amino-5-(1,3-benzothiazol-2-yl)-3-pyridyl]pyrazol-1-yl]piperidine-1-carboxylate] | 95.4%

Same assay, conditions: test compound at 30 μM

Compound | % of Axl tyrosine kinase activity inhibited at a concentration of 30 μM
Nc1ncc(-c2ccc(OCCCN3CCNCC3)cc2)cc1-c1nc2ncccc2o1 [Example 43B.38] | ^††††the compound disclosed in Example 43B.38 inhibited 95.3% of Axl tyrosine kinase activity at a concentration of 30 μM.
CS(=O)(=O)c1cccc(-c2cnc(N)c(-c3nc4cnccc4o3)c2)c1 [Example 8A.3] | ^###the compound disclosed in Example 8A.3 inhibited 100% of Axl tyrosine kinase activity at a concentration of 30 μM.

Same assay, conditions: test compound at 30 μM; read-out: % of Axl tyrosine kinase activity inhibited at a concentration of 30 μM

Compound | inhibition at 30 µM
Nc1ncc(-c2cccc(S(=O)(=O)N3CCOCC3)c2)cc1-c1nc2ccccc2o1 [Example 47, 3-(1,3-Benzoxazol-2-yl)-5-(3-morpholinosulphonylphenyl)pyridin-2-amine] | 99.5%
